Measured values as given in patent US4668681A, “2-(4-Phenylpiperazinylethyl) anilines” (Societe Cortial, S.A., priority 1981, dated 1987).
Values after ≈ are worked out from the molar mass of the structure shown.

Experiments:
[1] = Lethality (LD50) by oral administration in the Swiss mouse; settings: in vivo, 20% solution in Tween, 14 days observation
Experimental: The lethality produced by the compounds of this invention was measured in the Swiss mouse free from specific pathogenic organisms.

[2] = tested on: isolated ileum of the guinea pig; assay: Antihistaminic activity in vitro: inhibition of histamine-induced contractions of isolated ileum; format: cell-based; settings: Cavia porcellus, histamine 1×10^-8 g/l, bathing method, read-out: IC50 (concentration producing 50% inhibition of contractions induced by histamine)
Experimental: The antihistaminic activity was measured in vitro by measuring the concentration which produced 50% inhibition of the contractions induced by histamine (1×10^-8 g/l) in the isolated ileum of the guinea pig (IC50).

male Sprague-Dawley rats = assay: Antiallergic activity: passive cutaneous anaphylaxis test; format: in vivo; settings: oral, suspension with Tween 80, ten minutes before the releasing injection, rat; read-out: ED50 (percentage decrease of the amount of Evans blue diffused in the papule)
Experimental: The antiallergic activity was determined by the passive cutaneous anaphylaxis test in the following manner. A quantity of 0.1 ml of serum containing IgE was administered intradermally to male Sprague-Dawley rats. The serum was prepared by sensitizing Sprague-Dawley rats by an intraperitoneal injection of ovalbumin and a suspension of Bordetella pertussis followed after 20 days by a second injection of ovalbumin. 24 Hours after administration of the serum, 0.5 ml of a solution containing 8.25 mg/kg of ovalbumin and 26.4 mg/kg of Evans blue in a pH 7.05 buffer was administered intravenously. After 30 minutes the animals were sacrificed. Each papule was dissected, weighed and incubated for four days at 37° C. in 15 g of formamide. The amount of Evans blue contained in each papule was determined by measuring the optical density of the mixture. The product to be tested was administered orally in a homogenous suspension in the presence of Tween 80, ten minutes before the releasing injection. Its activity is evaluated by the percentage decrease of the amount of Evans blue which has diffused in the papule.

Structure (SMILES): Nc1ccccc1CCN1CCN(c2ccccc2)CC1 [Example 1, 2-(4-phenylpiperazinylethyl)aniline]
- LD50 at 336 h [1]: 1180 mg/kg
- IC50 [2]: 6.3 µg/mL (≈ 22.4 µM)
- ED50 (male Sprague-Dawley rats): 5.11 mg/kg
